Results reported in patent US20200222474A1, “COMPOSITIONS AND METHODS FOR INCREASING PHYTOCHEMICAL BIOAVAILABLITY AND BIOACTIVITY” (North Carolina State University, priority 2017, published 2020).

System: L. acidophilus NCFM
Assay: RNA-seq transcriptional analysis of L. acidophilus NCFM growing on plant glycosides
Type: cell-based, Lactobacillus acidophilus
[1] = gene LBA0282 (Hypothetical protein)
[2] = gene LBA0327 (Replication protein)
[3] = gene LBA0328 (Hypothetical protein)
[4] = gene LBA0330 (Hypothetical protein)
[5] = gene LBA0457 (Hypothetical protein)
[6] = gene LBA0485 (Hypothetical protein)
[7] = gene LBA0486 (Hypothetical protein)
[8] = gene LBA0487 (Hypothetical protein.)
[9] = gene LBA0492 (Hypothetical protein)
[10] = gene LBA0541 (Cadmium-transporting ATPase)
[11] = gene LBA0542 (Putative heavy-metal-transporting alpase)
[12] = gene LBA0543 (Hypothetical protein)
[13] = gene LBA0544 (Transcriptional regulator)
[14] = gene LBA0555 (Myosin-crossreactive antigen)
[15] = gene LBA0564 (HAD family hydrolase)
[16] = gene LBA0574 (ABC multi drug exporter)
[17] = gene LBA0575 (ABC multi drug exporter)
[18] = gene LBA0604 (Immunity protein)
[19] = gene LBA0605 (Putative hydrolase)
[20] = gene LBA0608 (Hypothetical protein)
[21] = gene LBA0631 (Hypothetical protein)
[22] = gene LBA0649 (Myosin-crossreactive antigen)
[23] = gene LBA0728 (Hypothetical protein LBA0728)
[24] = gene LBA1025 (Aldo/keto reductase family oxidoreductase)
[25] = gene LBA1026 (Aldo/keto reduetase family oxidoreductase)
[26] = gene LBA1206 (Hypothetical protein)
[27] = gene LBA1401 (Peroxidase (Npx))
[28] = gene LBA1435 (Hypothetical protein)
[29] = gene LBA1455 (Putative surface layer protein)
[30] = gene LBA1469 (UDP-glucose 4-epimerase)
[31] = gene LBA1656 (Hypothetical protein)
[32] = gene LBA1675 (Hypothetical protein)
[33] = gene LBA1676 (ATP-dependent helicase)
[34] = gene LBA1683 (Putative magnesium-transporting atpase)
[35] = gene LBA1704 (N-Acetylmuramic acid-6-phosphate etherase)
[36] = gene LBA1740 (Hypothetical protein)
[37] = gene LBA1752 (Hypothetical protein)
[38] = gene LBA1769 (Hypothetical protein)
[39] = gene LBA1793 (Hypothetical protein)
[40] = gene LBA1869 (Beta-phosphoglueomutase)
[41] = gene LBA1895 (Hypothetical protein)
[42] = nTPM on plant glycoside relative to glucose, mid-exponential phase

O=c1ccc2cc(O[C@@H]3O[C@H](CO)[C@@H](O)[C@H](O)[C@H]3O)c(O)cc2o1 [Esculin]
Log2 differential normalized TPM ratio compared to glucose [1]: 2.1
Log2 differential normalized TPM ratio compared to lactose [1]: 1.4
Transcripts per million (rpm) [1]: 92.4 rpm
Log2 differential normalized TPM ratio compared to glucose [2]: 2.4
Log2 differential normalized TPM ratio compared to lactose [2]: 2.1
Transcripts per million (rpm) [2]: 43.4 rpm
Log2 differential normalized TPM ratio compared to glucose [3]: 1.9
Log2 differential normalized TPM ratio compared to lactose [3]: 2
Transcripts per million (rpm) [3]: 55.9 rpm
Log2 differential normalized TPM ratio compared to glucose [4]: 3.3
Log2 differential normalized TPM ratio compared to lactose [4]: 2.9
Transcripts per million (rpm) [4]: 211.2 rpm
Log2 differential normalized TPM ratio compared to glucose [5]: 2.1
Log2 differential normalized TPM ratio compared to lactose [5]: 1.1
Transcripts per million (rpm) [5]: 2243.1 rpm
Log2 differential normalized TPM ratio compared to glucose [6]: 2
Log2 differential normalized TPM ratio compared to lactose [6]: −0.4
Transcripts per million (rpm) [6]: 868.4 rpm
Log2 differential normalized TPM ratio compared to glucose [7]: 2.3
Log2 differential normalized TPM ratio compared to lactose [7]: −0.5
Transcripts per million (rpm) [7]: 1210.2 rpm
Log2 differential normalized TPM ratio compared to glucose [8]: 1
Log2 differential normalized TPM ratio compared to lactose [8]: −0.3
Transcripts per million (rpm) [8]: 69.1 rpm
Log2 differential normalized TPM ratio compared to glucose [9]: 3.7
Log2 differential normalized TPM ratio compared to lactose [9]: 1.2
Transcripts per million (rpm) [9]: 108.4 rpm
Log2 differential normalized TPM ratio compared to glucose [10]: 1.9
Log2 differential normalized TPM ratio compared to lactose [10]: −0.3
Transcripts per million (rpm) [10]: 138.8 rpm
Log2 differential normalized TPM ratio compared to glucose [11]: 1.9
Log2 differential normalized TPM ratio compared to lactose [11]: −0.3
Transcripts per million (rpm) [11]: 337.4 rpm
Log2 differential normalized TPM ratio compared to glucose [12]: 2
Log2 differential normalized TPM ratio compared to lactose [12]: −0.4
Transcripts per million (rpm) [12]: 278.7 rpm
Log2 differential normalized TPM ratio compared to glucose [13]: 1.6
Log2 differential normalized TPM ratio compared to lactose [13]: −0.3
Transcripts per million (rpm) [13]: 342.2 rpm
Log2 differential normalized TPM ratio compared to glucose [14]: 2
Log2 differential normalized TPM ratio compared to lactose [14]: 0.1
Transcripts per million (rpm) [14]: 186.9 rpm
Log2 differential normalized TPM ratio compared to glucose [15]: 1.4
Log2 differential normalized TPM ratio compared to lactose [15]: 0.9
Transcripts per million (rpm) [15]: 2.8 rpm
Log2 differential normalized TPM ratio compared to glucose [16]: 2.4
Log2 differential normalized TPM ratio compared to lactose [16]: 2.1
Transcripts per million (rpm) [16]: 490.6 rpm
Log2 differential normalized TPM ratio compared to glucose [17]: 2.2
Log2 differential normalized TPM ratio compared to lactose [17]: 2
Transcripts per million (rpm) [17]: 381 rpm
Log2 differential normalized TPM ratio compared to glucose [18]: −0.3
Log2 differential normalized TPM ratio compared to lactose [18]: −0.8
Transcripts per million (rpm) [18]: 12.5 rpm
Log2 differential normalized TPM ratio compared to glucose [19]: 2.4
Log2 differential normalized TPM ratio compared to lactose [19]: 1.4
Transcripts per million (rpm) [19]: 15.5 rpm
Log2 differential normalized TPM ratio compared to glucose [20]: 2.3
Log2 differential normalized TPM ratio compared to lactose [20]: 1.2
Transcripts per million (rpm) [20]: 183.9 rpm
Log2 differential normalized TPM ratio compared to glucose [21]: 2.9
Log2 differential normalized TPM ratio compared to lactose [21]: −0.2
Transcripts per million (rpm) [21]: 9527.2 rpm
Log2 differential normalized TPM ratio compared to glucose [22]: 1.9
Log2 differential normalized TPM ratio compared to lactose [22]: 1.2
Transcripts per million (rpm) [22]: 154.8 rpm
Log2 differential normalized TPM ratio compared to glucose [23]: 4.8
Log2 differential normalized TPM ratio compared to lactose [23]: 3
Transcripts per million (rpm) [23]: 70.6 rpm
Log2 differential normalized TPM ratio compared to glucose (gene LBA0861 (Polyferredoxin)): 2
Log2 differential normalized TPM ratio compared to lactose (gene LBA0861 (Polyferredoxin)): 1.5
Transcripts per million (rpm) (gene LBA0861 (Polyferredoxin)): 785.8 rpm
Log2 differential normalized TPM ratio compared to glucose (gene LBA1023 (Oxidoreductase)): 2.3
Log2 differential normalized TPM ratio compared to lactose (gene LBA1023 (Oxidoreductase)): 2
Transcripts per million (rpm) (gene LBA1023 (Oxidoreductase)): 911.4 rpm
Log2 differential normalized TPM ratio compared to glucose [24]: 2.7
Log2 differential normalized TPM ratio compared to lactose [24]: 2.7
Transcripts per million (rpm) [24]: 210.8 rpm
Log2 differential normalized TPM ratio compared to glucose [25]: 2.3
Log2 differential normalized TPM ratio compared to lactose [25]: 1.9
Transcripts per million (rpm) [25]: 162.5 rpm
Log2 differential normalized TPM ratio compared to glucose (gene LBA1027 (Oxidoreductase)): 2.1
Log2 differential normalized TPM ratio compared to lactose (gene LBA1027 (Oxidoreductase)): 0.6
Transcripts per million (rpm) (gene LBA1027 (Oxidoreductase)): 2680.9 rpm
Log2 differential normalized TPM ratio compared to glucose [26]: 2.2
Log2 differential normalized TPM ratio compared to lactose [26]: 1
Transcripts per million (rpm) [26]: 636.7 rpm
Log2 differential normalized TPM ratio compared to glucose [27]: 3.1
Log2 differential normalized TPM ratio compared to lactose [27]: 1
Transcripts per million (rpm) [27]: 609.8 rpm
Log2 differential normalized TPM ratio compared to glucose [28]: 5
Log2 differential normalized TPM ratio compared to lactose [28]: 1.3
Transcripts per million (rpm) [28]: 142.3 rpm
Log2 differential normalized TPM ratio compared to glucose [29]: 0.7
Log2 differential normalized TPM ratio compared to lactose [29]: −0.9
Transcripts per million (rpm) [29]: 28.7 rpm
Log2 differential normalized TPM ratio compared to glucose [30]: 2.1
Log2 differential normalized TPM ratio compared to lactose [30]: −2.9
Transcripts per million (rpm) [30]: 385 rpm
Log2 differential normalized TPM ratio compared to glucose [31]: 1.2
Log2 differential normalized TPM ratio compared to lactose [31]: 0.6
Transcripts per million (rpm) [31]: 48.5 rpm
Log2 differential normalized TPM ratio compared to glucose [32]: 2.2
Log2 differential normalized TPM ratio compared to lactose [32]: 0.8
Transcripts per million (rpm) [32]: 1975.8 rpm
Log2 differential normalized TPM ratio compared to glucose [33]: 2
Log2 differential normalized TPM ratio compared to lactose [33]: 0.8
Transcripts per million (rpm) [33]: 1361.3 rpm
Log2 differential normalized TPM ratio compared to glucose [34]: 0.3
Log2 differential normalized TPM ratio compared to lactose [34]: 0.5
Transcripts per million (rpm) [34]: 20.5 rpm
Log2 differential normalized TPM ratio compared to glucose [35]: 1.6
Log2 differential normalized TPM ratio compared to lactose [35]: 0.9
Transcripts per million (rpm) [35]: 21.2 rpm
Log2 differential normalized TPM ratio compared to glucose [36]: 2.4
Log2 differential normalized TPM ratio compared to lactose [36]: 1.6
Transcripts per million (rpm) [36]: 95.9 rpm
Log2 differential normalized TPM ratio compared to glucose [37]: 2.3
Log2 differential normalized TPM ratio compared to lactose [37]: 1.4
Transcripts per million (rpm) [37]: 42.9 rpm
Log2 differential normalized TPM ratio compared to glucose [38]: 1.9
Log2 differential normalized TPM ratio compared to lactose [38]: 0
Transcripts per million (rpm) [38]: 6023.9 rpm
Log2 differential normalized TPM ratio compared to glucose [39]: 0.7
Log2 differential normalized TPM ratio compared to lactose [39]: −2.1
Transcripts per million (rpm) [39]: 28.5 rpm
Log2 differential normalized TPM ratio compared to glucose (gene LBA1796 (ABC exporter)): 1.9
Log2 differential normalized TPM ratio compared to lactose (gene LBA1796 (ABC exporter)): −0.6
Transcripts per million (rpm) (gene LBA1796 (ABC exporter)): 35.2 rpm
Log2 differential normalized TPM ratio compared to glucose [40]: 4.2
Log2 differential normalized TPM ratio compared to lactose [40]: 1.8
Transcripts per million (rpm) [40]: 156.4 rpm
Log2 differential normalized TPM ratio compared to glucose [41]: 1.4
Log2 differential normalized TPM ratio compared to lactose [41]: 1.2
Transcripts per million (rpm) [41]: 74.5 rpm
Log2 Ratio vs Glc, LBA0225 Phospho-β-glucosidase (GH1) [42]: −0.2
Log2 Ratio vs Glc, LBA0227 PTS EIIC [42]: 0.8
Log2 Ratio vs Glc, LBA0228 Transcriptional regulator [42]: 0.9
Log2 Ratio vs Glc, LBA0466 Phosphoenolpyruvate carboxykinase (ATP) [42]: 2
Log2 Ratio vs Glc, LBA0491 PTS EIIC [42]: 3.4
Log2 Ratio vs Glc, LBA0492 Hypothetical protein [42]: 3.7
Log2 Ratio vs Glc, LBA0555 Myosin-cross-reactive antigen/Fatty acid hydratase [42]: 2
Log2 Ratio vs Glc, LBA0606 PTS EIIBC [42]: 2.8
Log2 Ratio vs Glc, LBA0631 Hypothetical protein [42]: 2.9
Log2 Ratio vs Glc, LBA0724 Transcriptional regulator (antiterminator) [42]: 5.5
Log2 Ratio vs Glc, LBA0725 PTS EIICBA [42]: 9.8
Log2 Ratio vs Glc, LBA0726 Phospho-β-glucosidase (GH1) [42]: 6.9
Log2 Ratio vs Glc, LBA0728 Hypothetical protein [42]: 4.8
Log2 Ratio vs Glc, LBA0876 PTS EIIC [42]: 2.9
Log2 Ratio vs Glc, LBA0877 PTS EIIA [42]: 3
Log2 Ratio vs Glc, LBA1401 Peroxidase (Npx) [42]: 3.1
Log2 Ratio vs Glc, LBA1411 Fumarate reductase flavoprotein subunit [42]: 1.7
Log2 Ratio vs Glc, LBA1433 Dihydroxyacetone kinase [42]: 3.7
Log2 Ratio vs Glc, LBA1434 Dihydroxyacetone kinase [42]: 4.5
Log2 Ratio vs Glc, LBA1435 Hypothetical protein [42]: 5
Log2 Ratio vs Glc, LBA1436 Glycerol uptake facilitator protein [42]: 4.9
Log2 Ratio vs Glc, LBA1632 NAD-dependent aldehyde dehydrogenase [42]: 3.3
Log2 Ratio vs Glc, LBA1684 PTS EIIA [42]: 2.9
Log2 Ratio vs Glc, LBA1689 Maltose-6′-phosphate glucosidase (GH4) [42]: 1.8
Log2 Ratio vs Glc, LBA1701 Melibiose operon regulatory protein [42]: 4.9
Log2 Ratio vs Glc, LBA1709 Mucus binding protein precursor [42]: 3.6
Log2 Ratio vs Glc, LBA1797 Hypothetical protein [42]: 2.6
Log2 Ratio vs Glc, LBA1812 α-Glucosidase II (GH31) [42]: 2.8
Log2 Ratio vs Glc, LBA1869 β-Phosphoglucomutase [42]: 4.2
Log2 Ratio vs Glc, LBA1871 Neopullulanase (GH13) [42]: 2.1
Log2 Ratio vs Glc, LBA1873 Acetate kinase [42]: 0.8
Log2 Ratio vs Glc, LBA1974 Pyruvate oxidase [42]: 3.6
